{"source": "patent US20030013099A1", "about": "“Genes regulated by DNA methylation in colon tumors” (priority 2001, published 2003)", "key": {"HT29 cells": {"system": "HT29 cells", "assay": "microarray differential expression, HT29 cells treated with 500 nM Aza", "type": "cell-based, human", "conditions": "vs untreated, log base 2, negative = upregulation", "experimental": "HT29 cells were derived from a Grade II adenocarcinoma of the colon obtained from a person. HCT116 cells are a subpopulation of malignant cells isolated from a primary cell culture of a single human colonic carcinoma (Brattain et al. (1981) Cancer Res 41:1751-6). HMEC cells are a primary human epithelial cell line derived from the breast tissue of a normal donor. HT29 and HCT116 colorectal carcinoma cells (American Type Culture Collection, Manassas Va.) were cultured in McCoy's medium supplemented with 10% fetal bovine serum (Invitrogen) at 37° C. and 5% CO2. Treated cells were exposed to 500 nM 5-aza-2-deoxycytidine (Aza; Sigma-Aldrich) 24 hours after passage in complete culture medium. Control cultures were treated in parallel with phosphate buffered saline vehicle. After twenty-four hours, culture medium was replaced with drug-free medium. Control and Aza-treated cells were subcultured at equal densities at 1 and 5 days after the initial treatment, and proliferation was measured at the subsequent time point using a Coulter counter (Beckman Coulter, Fullerton Calif.). Cells were harvested 5 days after the initial treatment.\nCells were harvested and lysed in 1 ml of TRIZOL reagent (5×10^6 cells/ml; Invitrogen). The lysates were vortexed thoroughly and incubated at room temperature for 2-3 minutes and extracted with 0.5 ml chloroform. The extract was mixed, incubated at room temperature for 5 minutes, and centrifuged at 16,000× g for 15 minutes at 4° C. The aqueous layer was collected, and an equal volume of isopropanol was added. Samples were mixed, incubated at room temperature for 10 minutes, and centrifuged at 16,000× g for 20 minutes at 4° C. The supernatant was removed, and the RNA pellet was washed with 1 ml of 70% ethanol, centrifuged at 16,000× g at 4° C., and resuspended in RNAse-free water. The concentration of the RNA was determined by measuring the optical density at 260 nm.\nPoly(A) RNA was prepared using an OLIGOTEX mRNA kit (Qiagen) with the following modifications: OLIGOTEX beads were washed in tubes instead of on spin columns, resuspended in elution buffer, and then loaded onto spin columns to recover mRNA. To obtain maximum yield, the mRNA was eluted twice.\nEach poly(A) RNA sample was reverse transcribed using MMLV reverse-transcriptase, 0.05 pg/μl oligo-d(T) primer (21mer), 1× first strand buffer, 0.03 units/ul RNAse inhibitor, 500 uM dAT?, 500 uM dGTP, 500 uM dTTP, 40 uM dCTP, and 40 uM either dCTP-Cy3 or dCTP-Cy5 (APB). The reverse transcription reaction was performed in a […] volume containing 200 ng poly(A) RNA using the GEMBRIGHT kit (Incyte Genomics). Specific control poly(A) RNAs (YCFRO6, YCFR45, YCFR67, YCFR85, YCFR43, YCFR22, YCFR23, YCFR25, YCFR44, YCFR26) were synthesized by in vitro transcription from non-coding yeast genomic DNA (W. Lei, unpublished). As quantitative controls, control mRNAs (YCFRO6, YCFR45, YCFR67, and YCFR85) at 0.002 ng, 0.02 ng, 0.2 ng, and 2 ng were diluted into reverse transcription reaction at ratios of 1:100,000, 1:10,000, 1:1000, 1:100 (w/w) to sample mRNA, respectively. To sample differential expression patterns, control mRNAs (YCFR43, YCFR22, YCFR23, YCFR25, YCFR44, YCFR26) were diluted into reverse transcription reaction at ratios of 1:3, 3:1, 1:10, 10:1, 1:25, 25:1 (w/w) to sample mRNA. Reactions were incubated at 37° C. for 2 hours, treated with […] of 0.5M sodium hydroxide, and incubated for 20 minutes at 85° C. to the stop the reaction and degrade the RNA.\ncDNAs were purified using two successive CHROMA SPIN 30 gel filtration spin columns (Clontech). Cy3- and Cy5-labeled reaction samples were combined as described below and ethanol precipitated using […] of 100% ethanol. The cDNAs were then dried to completion using a SpeedVAC system (Savant Instruments, Holbrook N.Y.) and resuspended in 14 μl 5× SSC, 0.2% SDS. […]"}, "MIN mouse": {"system": "MIN mouse", "conditions": "Aza treatment in combination with a genetic reduction in DNA methyltransferase I activity; cited from earlier work"}}}
{"smiles": "Nc1ncn([C@H]2C[C@H](O)[C@@H](CO)O2)c(=O)n1", "note": "[Aza, 5-aza-2-deoxycytidine]", "values": [{"measurement": "differential expression, Clone ID 2416222, HT29 t/ Aza (5d)", "setting": "HT29 cells; SEQ ID NO:1 hypothetical protein", "value": "−1.74"}, {"measurement": "differential expression, Clone ID 4103545, HT29 t/ Aza (5d)", "setting": "HT29 cells; SEQ ID NO:2 Incyte Unique", "value": "−1.89"}, {"measurement": "differential expression, Clone ID 322569, HT29 t/ Aza (5d)", "setting": "HT29 cells; SEQ ID NO:3 interferon-inducible protein", "value": "−4.17"}, {"measurement": "differential expression, Clone ID 5322134, HT29 t/ Aza (5d)", "setting": "HT29 cells; SEQ ID NO:5 chromosome 6p21.3, HLA Class I region", "value": "−2.12"}, {"measurement": "differential expression, Clone ID 1698458, HT29 t/ Aza (5d)", "setting": "HT29 cells; SEQ ID NO:6 unnamed protein product", "value": "−1.79"}, {"measurement": "differential expression, Clone ID 1871523, HT29 t/ Aza (5d)", "setting": "HT29 cells; SEQ ID NO:7 KIAA1046 protein", "value": "−1.07"}, {"measurement": "differential expression, Clone ID 6024084, HT29 t/ Aza (5d)", "setting": "HT29 cells; SEQ ID NO:8 putative tumor antigen", "value": "−2.79"}, {"measurement": "differential expression, Clone ID 3810006, HT29 t/ Aza (5d)", "setting": "HT29 cells; SEQ ID NO:9 Incyte Unique", "value": "−0.92"}, {"measurement": "differential expression, Clone ID 4508879, HT29 t/ Aza (5d)", "setting": "HT29 cells; SEQ ID NO:10 Incyte Unique", "value": "−0.85"}, {"measurement": "differential expression, Clone ID 4225379, HT29 t/ Aza (5d)", "setting": "HT29 cells; SEQ ID NO:11 U 6 RNA", "value": "−0.85"}, {"measurement": "differential expression, Clone ID 3463713, HT29 t/ Aza (5d)", "setting": "HT29 cells; SEQ ID NO:12 cDNA clone ZD16H10", "value": "−1.87"}, {"measurement": "differential expression, Clone ID 2998017, HT29 t/ Aza (5d)", "setting": "HT29 cells; SEQ ID NO:13, 14 T-cell receptor gamma", "value": "−1.14"}, {"measurement": "differential expression, Clone ID 4318273, HT29 t/ Aza (5d)", "setting": "HT29 cells; SEQ ID NO:15 pTR5 repetitive sequence", "value": "−1.58"}, {"measurement": "differential expression, Clone ID 1649414, HT29 t/ Aza (5d)", "setting": "HT29 cells; SEQ ID NO:16 Hep27 protein", "value": "−1.20"}, {"measurement": "differential expression, Clone ID 1684742, HT29 t/ Aza (5d)", "setting": "HT29 cells; SEQ ID NO:18 cDNA FLJ20222", "value": "−0.85"}, {"measurement": "differential expression, Clone ID 2825816, HT29 t/ Aza (5d)", "setting": "HT29 cells; SEQ ID NO:19 KIAA0412", "value": "−1.84"}, {"measurement": "differential expression, Clone ID 2440943, HT29 t/ Aza (5d)", "setting": "HT29 cells; SEQ ID NO:21 Incyte Unique", "value": "−1.07"}, {"measurement": "differential expression, Clone ID 1294339, HT29 t/ Aza (5d)", "setting": "HT29 cells; SEQ ID NO:22 PDGF-B", "value": "−0.93"}, {"measurement": "differential expression, Clone ID 5104741, HT29 t/ Aza (5d)", "setting": "HT29 cells; SEQ ID NO:23 cDNA FLJ10570", "value": "−0.93"}, {"measurement": "differential expression, Clone ID 1855389, HT29 t/ Aza (5d)", "setting": "HT29 cells; SEQ ID NO:24 pTR7 repetitive sequence", "value": "−2.09"}, {"measurement": "differential expression, Clone ID 5207613, HT29 t/ Aza (5d)", "setting": "HT29 cells; SEQ ID NO:25 chromosome 21 segment HS21C049", "value": "−2.10"}, {"measurement": "differential expression, Clone ID 3207902, HT29 t/ Aza (5d)", "setting": "HT29 cells; SEQ ID NO:26 hypothetical protein", "value": "−1.29"}, {"measurement": "differential expression, Clone ID 4999769, HT29 t/ Aza (5d)", "setting": "HT29 cells; SEQ ID NO:27 ZNFpT17", "value": "−1.26"}, {"measurement": "differential expression, Clone ID 408886, HT29 t/ Aza (5d)", "setting": "HT29 cells; SEQ ID NO:28 transketolase", "value": "−1.31"}, {"measurement": "differential expression, Clone ID 4764233, HT29 t/ Aza (5d)", "setting": "HT29 cells; SEQ ID NO:30 GAGE-8", "value": "−2.00"}, {"measurement": "differential expression, Clone ID 2511379, HT29 t/ Aza (5d)", "setting": "HT29 cells; SEQ ID NO:31 GAGE-7B", "value": "−1.98"}, {"measurement": "differential expression, Clone ID 2471817, HT29 t/ Aza (5d)", "setting": "HT29 cells; SEQ ID NO:33 cDNA clone YU62C03", "value": "−1.20"}, {"measurement": "differential expression, Clone ID 3333736, HT29 t/ Aza (5d)", "setting": "HT29 cells; SEQ ID NO:34 MAGE-11 antigen", "value": "−1.38"}, {"measurement": "differential expression, Clone ID 1304365, HT29 t/ Aza (5d)", "setting": "HT29 cells; SEQ ID NO:35 GAGE-8", "value": "−2.48"}, {"measurement": "differential expression, Clone ID 2657056, HT29 t/ Aza (5d)", "setting": "HT29 cells; SEQ ID NO:37, 38 MAGE-4b antigen", "value": "−1.93"}, {"measurement": "differential expression, Clone ID 2507719, HT29 t/ Aza (5d)", "setting": "HT29 cells; SEQ ID NO:39 MAGE-9 antigen", "value": "−2.32"}, {"measurement": "differential expression, Clone ID 4688, HT29 t/ Aza (5d)", "setting": "HT29 cells; SEQ ID NO:41 MAGE-1", "value": "−2.03"}, {"measurement": "differential expression, Clone ID 2068708, HT29 t/ Aza (5d)", "setting": "HT29 cells; SEQ ID NO:42 HM74", "value": "−1.17"}, {"measurement": "differential expression, Clone ID 23770, HT29 t/ Aza (5d)", "setting": "HT29 cells; SEQ ID NO:43 1-8D", "value": "−2.99"}, {"measurement": "differential expression, Clone ID 1616783, HT29 t/ Aza (5d)", "setting": "HT29 cells; SEQ ID NO:45 Incyte Unique", "value": "−0.84"}, {"measurement": "differential expression, Clone ID 820942, HT29 t/ Aza (5d)", "setting": "HT29 cells; SEQ ID NO:46 cDNA FLJ20120", "value": "−0.58"}, {"measurement": "differential expression, Clone ID 891322, HT29 t/ Aza (5d)", "setting": "HT29 cells; SEQ ID NO:47 Incyte Unique", "value": 0.00}, {"measurement": "differential expression, Clone ID 2755836, HT29 t/ Aza (5d)", "setting": "HT29 cells; SEQ ID NO:48 U5 A RNA", "value": "−0.68"}, {"measurement": "differential expression, Clone ID 1227521, HT29 t/ Aza (5d)", "setting": "HT29 cells; SEQ ID NO:49 phospholipid scramblase 1", "value": "−2.10"}, {"measurement": "differential expression, Clone ID 2200842, HT29 t/ Aza (5d)", "setting": "HT29 cells; SEQ ID NO:50 retinoid inducible gene 1", "value": "−1.74"}, {"measurement": "differential expression, Clone ID 2238363, HT29 t/ Aza (5d)", "setting": "HT29 cells; SEQ ID NO:51 interferon induced", "value": "−1.85"}, {"measurement": "differential expression, Clone ID 1495382, HT29 t/ Aza (5d)", "setting": "HT29 cells; SEQ ID NO:53 TRAIL", "value": "−1.07"}, {"measurement": "differential expression, Clone ID 1998269, HT29 t/ Aza (5d)", "setting": "HT29 cells; SEQ ID NO:55 rhoB", "value": "−0.92"}, {"measurement": "differential expression, Clone ID 1919287, HT29 t/ Aza (5d)", "setting": "HT29 cells; SEQ ID NO:56 hepatitis C-associated microtubular aggregate", "value": "−3.12"}, {"measurement": "differential expression, Clone ID 2637446, HT29 t/ Aza (5d)", "setting": "HT29 cells; SEQ ID NO:57 HE4 protein", "value": "−1.07"}, {"measurement": "differential expression, Clone ID 1962141, HT29 t/ Aza (5d)", "setting": "HT29 cells; SEQ ID NO:58 Similar to keratin 7", "value": "−0.43"}, {"measurement": "differential expression, Clone ID 4933404, HT29 t/ Aza (5d)", "setting": "HT29 cells; SEQ ID NO:60 Incyte Unique", "value": "−0.32"}, {"measurement": "differential expression, Clone ID 2150288, HT29 t/ Aza (5d)", "setting": "HT29 cells; SEQ ID NO:61 Keratin 8", "value": "−0.07"}, {"measurement": "differential expression, Clone ID 2697455, HT29 t/ Aza (5d)", "setting": "HT29 cells; SEQ ID NO:61 Keratin 8", "value": "−0.32"}, {"measurement": "polyp formation", "setting": "MIN mouse", "value": "reduced polyp formation"}]}
